SMILES strings stand for the structures. Several values for one entry are separate records, joined by “and”; a condition that tells them apart may be missing. Equal values may be shown once. A value given as a limit tells only on which side of the number the result lay.

The results in this text go back to patent US20250136722A1, “CYTOTOXICITY TARGETING CHIMERAS” (GLAXOSMITHKLINE INTELLECTUAL PROPERTY DEVELOPMENT LIMITED, priority 2021, published 2025).

Test [1] deals with endogenous target monocytes in human PBMC. Briefly: PBMC ex vivo monocyte depletion flow cytometry assay (Example 200). It is filed as cell-based. The note with it: with anti-cotinine antibody SEQ ID NO: 11/12, 18-24 hours, read-out: Ex Vivo Depletion Assay pEC50 (converted). The method, then:
A human PBMC (peripheral blood mononuclear cells) monocyte depletion flow cytometry assay was developed to screen compounds in a 384-well plate format. This assay incorporated endogenous natural killer cells to deplete endogenous target monocytes.
To screen compounds in the human PBMC monocyte depletion flow cytometry assay, 11-point dose-response curves were made from 1 mM stocks in neat DMSO by serially diluting an ARM compound of Formula (I) four-fold into a 384-well plate row-wise. These serially diluted compounds were then stamped into a flat bottom polypropylene 384-well plate (Greiner Bio-One) at 100 nL/well. Fifty microliters of 30 μg/mL anti-cotinine antibody having a heavy chain sequence of SEQ ID NO: 11 and a light chain sequence of SEQ ID NO: 12 (rabbit variable region with human IgG1 Fc domain containing a DE mutation (S239D/1332E)) that had been diluted in assay medium (RPMI 1640 (Gibco) containing 10% fetal bovine serum (Gibco), 1% Glutamax (Gibco) and 1% sodium pyruvate (Corning) was added to the wells of the plate. The plate was centrifuged for 1 min at 500 rpm (revolutions per minute) and then shaken for 5 min at room temperature. The plate was incubated for 15 minutes at 37° C./5% CO2.
Frozen PBMC cells (HemaCare BioResearch) were thawed and centrifuged at 1,200 rpm for 4 minutes. The cells were diluted to a cell density of 2×10^6 cells/mL in assay medium. Fifty microliters of the diluted cells were added to the wells of the plate. The plate was centrifuged for 1 min at 500 rpm and incubated for 18-24 hours at 37° C./5% CO2.
After 18-24 hours incubation, 2 μL of 6.25 μg human FC block (BD Pharmingen) that was diluted in assay medium was added to the wells of the plate. The plate was centrifuged for 1 minute at 500 rpm and then incubated at room temperature for 15 minutes. Five microliters of 750 nM Helix NP NIR (Biolegend) that had been diluted in assay medium was added to the wells of the plate. Nine microliters of antibody cocktail containing 1/5 diluted fluorescein isothiocyanate (FITC) labeled anti-CD45 antibody (Beckman Coulter), PC7 labeled anti-CD14 antibody (Beckman Coulter) and phycoerythrin (PE) anti-CD4 antibody (Beckman Coulter) was then added to the wells of the plate. The plate was centrifuged for 1 min at 500 rpm and incubated for 30 minutes at 4-8° C. Samples from the plate were run on BD FACS Canto II flow cytometer and data was analyzed using FlowJo software.
ARMs compounds of Formula (I) of the invention were tested for the ability to deplete monocytes in the above assay in one or more experimental runs and the results are shown in Table 3 below. Potency of the compounds of the invention is reported as a pEC50 value. The pEC50 value is the negative log of the EC50 value, wherein the EC50 value is the half maximal effective concentration measured in molar (M). For compounds tested in more than one experimental run, the pEC50 value is reported as an average or as the individual values measured
In general terms: Flow cytometry measures light scatter and fluorescence of single cells or particles in a stream.

Test [2] has as its target T1, CHOK1 cells engineered to overexpress human CCR2 (Homo sapiens, UniProt P41597).
T1 construct: expressed in transfected cells; host or cells: CHOK1 cells
In words: Antibody dependent cellular cytotoxicity (ADCC) reporter assay (Example 199). In kind it is cell-based. Particulars: with anti-cotinine antibody SEQ ID NO: 11/12, CHOK1-human CCR2 target cells, Jurkat FcγRIIIa NFAT-luciferase reporter cells, 12-18 hours; for EC50: read-out: ADCC Reporter Assay pEC50 (converted). The method, boiled down: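 Potency is reported as pEC50 from a nonlinear fit, averaged over runs, using luciferase signal divided by that of compound-free wells. The readout comes from NFAT-luciferase Jurkat cells expressing FcγRIIIa, mixed for 12–18 h with human CCR2-overexpressing CHOK1 cells, 1 pM–10 μM ARM compound and 0.01–200 μg/mL Fc-enhanced anti-cotinine IgG1.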
A general note: A reporter such as luciferase makes a cellular process visible.

Test [3] addresses Anti-cotinine antibody (SEQ ID NO: 11 / SEQ ID NO: 12, rabbit variable region with human IgG1 Fc domain). In words: Binding of anti-cotinine antibody to ARM compounds by SPR, Biacore T200, 37° C. (Example 202). Particulars: pH 7.4, rabbit variable region/human IgG1 Fc antibody captured on protein A. The method, boiled down: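 Run at 37° C. in 10 mM HEPES pH 7.4, 150 mM NaCl, 0.005% P20, 1% DMSO. Compound titrated from 200 nM (five 3-fold steps) over protein A-captured antibody, with 200/2000 s association/dissociation. 1:1 kinetic fit gave kon, koff, Kd and residence time (1/koff); pKd averaged where runs repeated.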
For orientation: Surface plasmon resonance follows binding to a sensor surface in real time, without labels.

The target in test [4] is human alpha1 nicotinic acetylcholine (nACh) receptor (Homo sapiens, UniProt P02708+Q07001). Briefly: Nicotinic acetylcholine receptor antagonism assay, IONFlux automated patch clamp (Example 203). It is filed as cell-based. Particulars: for Emax at 10 µM: maximum percentage antagonism at maximum concentration tested 10 μM; for Emax at 10 µM / Emax at 100 µM: read-out: Maximum Response (%); for IC50: nAChR antagonism, ACh stimulated, patch clamp; for Emax at 100 µM: maximum percentage antagonism at maximum concentration tested 100 μM. The method in brief: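 Human α1 nAChR-expressing cells were preincubated with compound (top 10 μM or 100 μM), then stimulated with 10 mM ACh; peak currents were recorded by IONFlux automated patch clamp. Percent inhibition versus ACh-alone control was vehicle- and rundown-corrected, then fitted to give IC50, with maximal antagonism at the top concentration; recordings with control current <500 pA were excluded.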
Sequence of human alpha1 nicotinic acetylcholine (nACh) receptor (P02708 21-457): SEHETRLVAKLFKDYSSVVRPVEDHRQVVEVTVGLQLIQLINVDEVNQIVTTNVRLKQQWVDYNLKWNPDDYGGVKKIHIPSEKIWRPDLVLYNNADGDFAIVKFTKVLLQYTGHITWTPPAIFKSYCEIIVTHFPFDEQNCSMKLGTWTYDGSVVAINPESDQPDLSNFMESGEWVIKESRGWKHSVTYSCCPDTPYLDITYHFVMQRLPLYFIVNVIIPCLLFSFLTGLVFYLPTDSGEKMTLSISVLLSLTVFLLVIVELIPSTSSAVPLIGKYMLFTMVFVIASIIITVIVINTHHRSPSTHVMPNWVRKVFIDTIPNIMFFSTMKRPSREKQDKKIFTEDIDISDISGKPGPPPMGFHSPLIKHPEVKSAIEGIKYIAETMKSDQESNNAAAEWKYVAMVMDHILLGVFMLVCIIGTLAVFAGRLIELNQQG
Sequence of human alpha1 nicotinic acetylcholine (nACh) receptor (P11230 24-501 partner): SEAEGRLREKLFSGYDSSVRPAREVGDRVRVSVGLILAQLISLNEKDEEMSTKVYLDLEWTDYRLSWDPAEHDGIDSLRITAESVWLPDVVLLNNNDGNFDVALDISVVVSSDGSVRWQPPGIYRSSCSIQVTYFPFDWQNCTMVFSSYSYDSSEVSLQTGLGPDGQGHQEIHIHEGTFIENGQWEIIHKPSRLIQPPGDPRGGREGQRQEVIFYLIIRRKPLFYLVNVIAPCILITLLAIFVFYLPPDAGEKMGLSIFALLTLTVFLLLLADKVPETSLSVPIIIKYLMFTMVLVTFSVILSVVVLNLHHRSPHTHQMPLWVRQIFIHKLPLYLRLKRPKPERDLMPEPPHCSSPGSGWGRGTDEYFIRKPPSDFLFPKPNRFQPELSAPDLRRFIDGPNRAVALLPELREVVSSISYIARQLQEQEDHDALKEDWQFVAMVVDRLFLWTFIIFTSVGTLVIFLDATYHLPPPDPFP
Sequence of human alpha1 nicotinic acetylcholine (nACh) receptor (Q07001 22-517): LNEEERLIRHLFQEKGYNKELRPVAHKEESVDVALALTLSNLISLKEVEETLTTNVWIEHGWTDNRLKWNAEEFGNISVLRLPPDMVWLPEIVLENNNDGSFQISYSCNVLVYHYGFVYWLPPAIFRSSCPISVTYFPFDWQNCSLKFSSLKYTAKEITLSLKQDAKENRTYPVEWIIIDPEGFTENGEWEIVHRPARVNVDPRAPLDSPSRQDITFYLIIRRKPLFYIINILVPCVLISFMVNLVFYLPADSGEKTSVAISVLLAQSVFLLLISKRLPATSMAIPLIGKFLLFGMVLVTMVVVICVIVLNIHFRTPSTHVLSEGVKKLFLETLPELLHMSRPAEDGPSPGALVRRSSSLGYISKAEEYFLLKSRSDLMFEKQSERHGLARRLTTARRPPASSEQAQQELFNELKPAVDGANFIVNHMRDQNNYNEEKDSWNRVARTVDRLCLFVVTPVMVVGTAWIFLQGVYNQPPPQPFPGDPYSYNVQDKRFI

Regarding `CC(C)N(C)[C@@H]1CC[C@H](N2CC[C@H](Nc3ncnc4ccc(C(F)(F)F)cc34)C2=O)[C@H](NC(=O)C2CCC(N3CCC(S(=O)(=O)NCCCCCCNC(=O)[C@H]4CC(=O)N(C)[C@@H]4c4cccnc4)CC3)CC2)C1` (single isomer, unassigned) [compound 149], in test [1], the EC50 was 0.251 nM.

In the case of `CN1C(=O)C[C@H](C(=O)NCCCOCCCNC(=O)CCCC(=O)NC2CCC(C(=O)N[C@@H]3C[C@H](NC(C)(C)C)CC[C@@H]3N3CC[C@H](Nc4ncnc5ccc(C(F)(F)F)cc45)C3=O)CC2)[C@H]1c1cccnc1` (stereo partly drawn) [Example 22], the “ADCC Reporter Assay pEC50” value in test [2] was 9 and 9.3. Further, in test [1], the EC50 is 0.631 nM. In test [3], the “pKd of Antibody for ARM Compound of Formula (I)” value (“pKd of Antibody” below) was 9.2495.

As for `CC(C)N(C)[C@@H]1CCC(N2CC[C@H](Nc3ncnc4ccc(C(F)(F)F)cc34)C2=O)[C@H](NC(=O)CCOCCOCCOCCOCCNC(=O)[C@H]2CC(=O)N(C)[C@@H]2c2cccnc2)C1` (stereo partly drawn) [Example 39], the EC50 in test [1] is 2510 nM.

Usually IC50 stands for the point on the concentration scale where inhibition reaches its midpoint. Higher therefore signals weaker potency in that assay. Regarding `CC(C)N(C)[C@@H]1CCC(N2CC[C@H](Nc3ncnc4ccc(C(F)(F)F)cc34)C2=O)[C@H](NC(=O)CCOCCOCCOCCOCCOCCNC(=O)[C@H]2CC(=O)N(C)[C@@H]2c2cccnc2)C1` (stereo partly drawn) [Example 40], in test [1], the EC50 was 5.01 nM. In test [3], the “pKd of Antibody” value is reported as 9.4525. Also, in test [4], the Emax at 10 µM is 24.7% and the IC50 was above 10000 nM.

Consider `CC(C)N(C)[C@@H]1CCC(N2CC[C@H](Nc3ncnc4ccc(C(F)(F)F)cc34)C2=O)[C@H](NC(=O)CCOCCOCCOCCOCCOCCOCCNC(=O)[C@H]2CC(=O)N(C)[C@@H]2c2cccnc2)C1` (stereo partly drawn) [Example 41], for which the EC50 in test [1] is 2.51 nM. In addition, in test [3], the “pKd of Antibody” value is reported as 9.3615. In addition, in test [4], the Emax at 10 µM turned out to be 20.1% and the IC50 was above 10000 nM.

In the case of `CC(C)N(C)C1CCC(N2CC[C@H](Nc3ncnc4ccc(C(F)(F)F)cc34)C2=O)[C@H](N[C@H]2CC[C@@H](C(=O)NCCOCCOCCOCCOCCNC(=O)[C@H]3CC(=O)N(C)[C@@H]3c3cccnc3)CC2)C1` (stereo partly drawn) [Example 67], the EC50 in test [1] was 3.98 nM.

`CC(C)N(C)[C@@H]1CC[C@H](N2CC[C@H](Nc3ncnc4ccc(C(F)(F)F)cc34)C2=O)[C@H](NC(=O)C2CCN(C3CCN(C(=O)CCCCCCCNC(=O)[C@@H]4CC(=O)N(C)[C@H]4c4cccnc4)CC3)CC2)C1` [Example 154, N-((1R,2S,5R)-5-(Isopropyl(methyl)amino)-2-((S)-2-oxo-3-((6-(trifluoromethyl)quinazolin-4-yl)amino)pyrrolidin-1-yl)cyclohexyl)-1′-(8-((2R,3R)-1-methyl-5-oxo-2-(pyridin-3-yl)pyrrolidine-3-carboxamido)octanoyl)-[1,4′-bipiperidine]-4-carboxamide]: the EC50 in test [2] is 2.51 nM; in test [1] it was 0.501 nM.

For the compound `CC(C)N(CCOCCOCCC(=O)N[C@H]1CC[C@@H](C(=O)N[C@@H]2C[C@H](N(C)C(C)C)CC[C@@H]2N2CC[C@H](Nc3ncnc4ccc(C(F)(F)F)cc34)C2=O)CC1)C(=O)CCNC(=O)[C@H]1CC(=O)N(C)[C@@H]1c1ccccc1` [Example 178], the EC50 in test [1] is 0.398 nM.

For the compound `CC(C)N(C)[C@@H]1CC[C@H](N2CC[C@H](Nc3ncnc4ccc(C(F)(F)F)cc34)C2=O)[C@H](NC(=O)CCOCCC(=O)N[C@H]2C[C@H](C(=O)NCCOCCNC(=O)[C@H]3CC(=O)N(C)[C@@H]3c3cccnc3)C2)C1` [Example 187], in test [2], the EC50 is 0.324 nM. The “pKd of Antibody” value in test [3] was 9.104. In test [4], the Emax at 100 µM was 63.7% and the IC50 worked out at 71100 nM.

On to `CC(C)N(C)[C@@H]1CC[C@H](N2CC[C@H](Nc3ncnc4ccc(C(F)(F)F)cc34)C2=O)[C@H](NC(=O)CCCN2CCC3(CCN(CCCNC(=O)[C@H]4CC(=O)N(C)[C@@H]4c4cccnc4)CC3)CC2)C1` [Example 191, (2S,3S)-N-(3-(9-(4-(((1R,2S,5R)-5-(Isopropyl(methyl)amino)-2-((S)-2-oxo-3-((6-(trifluoromethyl)quinazolin-4-yl)amino)pyrrolidin-1-yl)cyclohexyl)amino)-4-oxobutyl)-3,9-diazaspiro[5.5]undecan-3-yl)propyl)-1-methyl-5-oxo-2-(pyridin-3-yl)pyrrolidine-3-carboxamide], for which the EC50 in test [2] is 0.424 nM. Also, the “pKd of Antibody” value in test [3] was 9.68. Besides, in test [4], the Emax at 10 µM came to 74% and the IC50 was 2950 nM.

On to `CC(C)N(C)[C@@H]1CC[C@H](N2CC[C@H](Nc3ncnc4ccc(C(F)(F)F)cc34)C2=O)[C@H](NC(=O)[C@H]2CC[C@H](C(=O)NCCCOCCCCOCCCNC(=O)[C@H]3CC(=O)N(C)[C@@H]3c3cccnc3)CC2)C1` [Example 194, (1 r,4R)-N^1-((1R,2S,5R)-5-(Isopropyl(methyl)amino)-2-((S)-2-oxo-3-((6-(trifluoromethyl)quinazolin-4-yl)amino)pyrrolidin-1-yl)cyclohexyl)-N^4-(3-(4-(3-((2S,3S)-1-methyl-5-oxo-2-(pyridin-3-yl)pyrrolidine-3-carboxamido)propoxy)butoxy)propyl)cyclohexane-1,4-dicarboxamide], for which, in test [2], the EC50 was 0.275 nM. In test [3], the “pKd of Antibody” value amounted to 9.5415. In test [4], the Emax at 100 µM stood at 44.9% and the IC50 is above 100000 nM.

On to `CC(C)N(C)[C@@H]1CC[C@H](N2CC[C@H](Nc3ncnc4ccc(C(F)(F)F)cc34)C2=O)[C@H](NC(=O)[C@H]2CC[C@H](C3CCN(C(=O)CCOCCOCCNC(=O)[C@H]4CC(=O)N(C)[C@@H]4c4cccnc4)CC3)CC2)C1` [compound 73], for which the EC50 in test [2] was 7.94 nM. Also, the “pKd of Antibody” value in test [3] was 9.8185. Also, in test [4], the Emax at 10 µM turned out to be 4.1% and the IC50 was above 10000 nM.
